How the values were obtained:
Assay in all cases: relative viability (nuclei count vs DMSO), 5 days (fraction); higher = more cells survive
KN-93 + Pemetrexed = compound: CN(C/C=C/C1=CC=C(C=C1)Cl)CC2=CC=CC=C2N(CCO)S(=O)(=O)C3=CC=C(C=C3)OC [KN-93] + Nc1nc2[nH]cc(CCc3ccc(C(=O)N[C@@H](CCC(=O)O)C(=O)O)cc3)c2c(=O)[nH]1 [Pemetrexed] (partner 0.2 µM)
Summary of the method: (§1)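 The day after seeding in 1536-well plates, lung cancer cell lines were treated by pin tool with a single drug, or with a fixed anchor-drug dose together with five library-drug doses (not always all listed) in √10 steps. After 5 days, a combined fix-and-stain solution (final 0.05% Triton X-100, 1% formaldehyde, 1 ug/ml Hoechst) was added. Nuclei counted on 4× images gave relative viability as treated counts over vehicle counts, reported as the median of duplicate plates.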

KN-93 + Palbociclib = compound: CN(C/C=C/C1=CC=C(C=C1)Cl)CC2=CC=CC=C2N(CCO)S(=O)(=O)C3=CC=C(C=C3)OC [KN-93] + CC(=O)c1c(C)c2cnc(Nc3ccc(N4CCNCC4)cn3)nc2n(C2CCCC2)c1=O [Palbociclib] (partner 0.5 µM)
Summary of the method: as §1

KN-93 + OSI-027 = compound: CN(C/C=C/C1=CC=C(C=C1)Cl)CC2=CC=CC=C2N(CCO)S(=O)(=O)C3=CC=C(C=C3)OC [KN-93] + COc1cccc2cc(-c3nc([C@H]4CC[C@H](C(=O)O)CC4)n4ncnc(N)c34)[nH]c12 [OSI-027] (partner 0.5 µM)
Summary of the method: as §1

KN-93 + Tozasertib = compound: CN(C/C=C/C1=CC=C(C=C1)Cl)CC2=CC=CC=C2N(CCO)S(=O)(=O)C3=CC=C(C=C3)OC [KN-93] + Cc1cc(Nc2cc(N3CCN(C)CC3)nc(Sc3ccc(NC(=O)C4CC4)cc3)n2)n[nH]1 [Tozasertib] (partner 0.1 µM)
Summary of the method: as §1

KN-93 + Bortezomib = compound: CN(C/C=C/C1=CC=C(C=C1)Cl)CC2=CC=CC=C2N(CCO)S(=O)(=O)C3=CC=C(C=C3)OC [KN-93] + CC(C)C[C@H](NC(=O)[C@H](Cc1ccccc1)NC(=O)c1cnccn1)B(O)O [Bortezomib] (partner 0.002 µM)
Summary of the method: as §1

Cell Line | relative viability (KN-93 + Pemetrexed; first compound 0.08 µM) | relative viability (KN-93 + Pemetrexed; first compound 0.253 µM) | relative viability (KN-93 + Pemetrexed; first compound 2.53 µM) | relative viability (KN-93 + Pemetrexed; first compound 8 µM) | relative viability (KN-93 + Palbociclib; first compound 0.08 µM) | relative viability (KN-93 + Palbociclib; first compound 0.253 µM) | relative viability (KN-93 + Palbociclib; first compound 2.53 µM) | relative viability (KN-93 + Palbociclib; first compound 8 µM) | relative viability (KN-93 + OSI-027; first compound 0.08 µM) | relative viability (KN-93 + OSI-027; first compound 0.253 µM) | relative viability (KN-93 + OSI-027; first compound 2.53 µM) | relative viability (KN-93 + OSI-027; first compound 8 µM) | relative viability (KN-93 + Tozasertib; first compound 0.08 µM) | relative viability (KN-93 + Tozasertib; first compound 0.253 µM) | relative viability (KN-93 + Tozasertib; first compound 2.53 µM) | relative viability (KN-93 + Tozasertib; first compound 8 µM) | relative viability (KN-93 + Bortezomib; first compound 0.08 µM) | relative viability (KN-93 + Bortezomib; first compound 0.253 µM) | relative viability (KN-93 + Bortezomib; first compound 2.53 µM) | relative viability (KN-93 + Bortezomib; first compound 8 µM)
NCI-H1666 | 0.844 | 1 | 0.818 | 0.821 | 0.639 | 0.656 | 0.669 | 0.622 | 0.882 | 0.834 | 0.993 | 0.857 | 0.599 | 0.662 | 0.57 | 0.454 | 0.753 | 0.669 | 0.945 | 0.607
NCI-H520 | 0.72 | 0.738 | 0.658 | 0.422 | 0.219 | 0.218 | 0.251 | 0.201 | 0.287 | 0.289 | 0.279 | 0.205 | 0.455 | 0.447 | 0.459 | 0.382 |  | 0.883 | 0.914 | 0.511
LC-2-ad | 0.272 | 0.272 | 0.298 | 0.295 | 0.491 | 0.517 | 0.529 | 0.452 | 0.874 | 0.964 | 0.842 | 0.707 | 0.444 | 0.393 | 0.483 | 0.389 | 0.975 | 0.998 | 1.22 | 0.446
UMC-11 | 0.697 | 1.01 | 1.05 | 0.467 | 0.35 | 0.306 | 0.35 | 0.322 | 0.442 | 0.526 | 0.488 | 0.314 | 0.178 | 0.199 | 0.188 | 0.203 |  | 0.919 | 0.799 | 0.197
LOU-NH91 | 0.356 | 0.325 | 0.445 | 0.439 | 0.542 | 0.562 | 0.56 | 0.512 | 0.663 | 0.565 | 0.827 | 0.65 | 0.618 | 0.663 | 0.586 | 0.477 | 0.534 | 0.456 | 0.48 | 0.392
NCI-H1915 | 0.471 | 0.601 | 0.515 | 0.506 | 0.536 | 0.537 | 0.513 | 0.438 | 0.571 | 0.718 | 0.653 | 0.472 | 0.388 | 0.446 | 0.413 | 0.308 | 0.929 | 1.31 | 1.1 | 0.54
EMC-BAC-2 | 0.452 | 0.484 | 0.497 | 0.437 | 0.564 | 0.53 | 0.537 | 0.46 | 0.373 | 0.355 | 0.389 | 0.337 | 0.24 | 0.276 | 0.274 | 0.274 | 0.908 | 1.12 | 1.12 | 0.58
HCC-15 | 0.218 | 0.209 | 0.21 | 0.215 | 0.671 | 0.82 | 0.735 | 0.513 | 0.558 | 0.722 | 0.636 | 0.527 | 0.284 | 0.523 | 0.312 | 0.101 | 0.838 | 1.27 | 1.17 | 0.634
EPLC-272H | 0.422 | 0.274 | 0.285 | 0.211 | 0.321 | 0.279 | 0.354 | 0.346 | 0.218 | 0.295 | 0.297 | 0.219 | 0.234 | 0.213 | 0.317 | 0.227 | 0.863 | 1.39 | 0.982 | 0.752
BEN | 0.886 | 0.829 | 0.913 | 0.54 | 0.482 | 0.448 | 0.523 | 0.465 | 0.323 | 0.308 | 0.304 | 0.304 | 0.525 | 0.529 | 0.489 | 0.531 |  | 0.895 | 1.01 | 0.471
NCI-H1975 | 0.277 | 0.299 | 0.309 | 0.221 | 0.475 | 0.477 | 0.742 | 0.193 | 0.674 | 0.731 | 0.677 | 0.417 | 0.702 | 0.849 | 0.676 | 0.146 | 0.334 | 0.38 | 0.33 | 0.249
NCI-H23 | 0.685 | 0.866 | 0.883 | 0.502 | 0.516 | 0.493 | 0.618 | 0.418 | 0.566 | 0.544 | 0.662 | 0.344 | 0.327 | 0.359 | 0.439 | 0.267 | 0.878 | 1.07 | 1.14 | 0.893
NCI-H2126 | 0.541 | 0.64 | 0.69 | 0.654 | 0.341 | 0.333 | 0.362 | 0.354 | 0.691 | 0.557 | 0.638 | 0.674 | 0.858 | 0.805 | 0.862 | 0.554 | 1.07 | 1.08 | 1.19 | 1.09
COR-L 105 | 1.07 | 1.02 | 1.31 | 0.832 | 0.456 | 0.412 | 0.391 | 0.333 | 0.618 | 0.771 | 0.588 | 0.437 | 0.399 | 0.325 | 0.329 | 0.282 | 0.798 | 0.836 | 0.914 | 0.378
NCI-H2228 | 0.407 | 0.383 | 0.353 | 0.252 | 0.723 | 0.97 | 1.09 | 0.165 | 0.55 | 0.443 | 0.567 | 0.237 | 0.274 | 0.166 | 0.243 | 0.154 | 1.01 | 1.18 | 1.14 | 0.817
PC-3 [JPC-3] | 1.15 | 1.37 | 0.898 | 0.858 | 0.49 | 0.476 | 0.591 | 0.569 | 0.695 | 0.749 | 0.771 | 0.55 | 0.905 | 0.957 | 0.922 | 0.813 | 0.724 | 0.97 | 0.982 | 0.579
LU99A | 0.183 | 0.183 | 0.189 | 0.222 | 0.455 | 0.457 | 0.397 | 0.371 | 0.327 | 0.273 | 0.27 | 0.275 | 0.239 | 0.287 | 0.246 | 0.212 | 1.08 | 1.28 | 1.33 | 0.93
NCI-H2347 | 0.376 | 0.473 | 0.45 | 0.549 | 0.378 | 0.44 | 0.434 | 0.407 | 0.379 | 0.318 | 0.371 | 0.339 | 0.587 | 0.55 | 0.618 | 0.505 | 1.27 | 0.741 | 0.828 | 0.745
201T | 0.327 | 0.315 | 0.32 | 0.323 | 0.359 | 0.376 | 0.367 | 0.306 | 0.789 | 0.558 | 0.884 | 0.373 | 0.916 | 0.99 | 0.819 | 0.508 | 1.11 | 1.15 | 1.07 | 0.554
NCI-H2009 | 1.01 | 1.07 | 1.1 | 0.796 | 0.244 | 0.204 | 0.217 | 0.196 | 0.608 | 0.629 | 0.535 | 0.248 | 0.689 | 0.764 | 0.692 | 0.493 | 1.05 | 0.995 | 0.84 | 0.462
CAL-12T | 1.08 | 1.25 | 0.93 | 1.01 | 0.37 | 0.52 | 0.232 | 0.3 | 0.718 | 0.59 | 0.657 | 0.434 | 0.299 | 0.354 | 0.324 | 0.176 | 1.02 | 1.09 | 0.993 | 0.803
NCI-H322M | 0.641 | 0.628 | 0.701 | 0.614 | 0.481 | 0.503 | 0.494 | 0.445 | 0.535 | 0.577 | 0.539 | 0.411 | 0.505 | 0.502 | 0.524 | 0.489 | 1.36 | 1.21 | 1.29 | 1.14
HARA | 0.292 | 0.29 | 0.282 | 0.247 | 0.29 | 0.261 | 0.229 | 0.195 | 0.427 | 0.457 | 0.413 | 0.138 | 0.125 | 0.104 | 0.111 | 0.11 | 1.01 | 1.08 | 1.24 | 0.836
NCI-H650 | 1.02 | 0.993 | 1.04 | 0.788 | 0.314 | 0.307 | 0.327 | 0.271 | 0.502 | 0.536 | 0.576 | 0.443 | 0.738 | 0.762 | 0.694 | 0.523 | 0.959 | 0.915 | 1.25 | 0.454
NCI-H2405 | 1.06 | 1.24 | 1.02 | 0.775 | 0.561 | 0.594 | 0.547 | 0.471 | 0.62 | 0.584 | 0.697 | 0.606 | 0.799 | 0.776 | 0.733 | 0.533 | 1.01 | 0.978 | 1.09 | 0.728
NCI-H2023 | 0.244 | 0.247 | 0.325 | 0.14 | 0.384 | 0.436 | 0.49 | 0.227 | 0.361 | 0.359 | 0.345 | 0.211 | 0.363 | 0.337 | 0.483 | 0.178 | 0.971 | 0.955 | 1.04 | 0.448
PC-14 | 0.154 | 0.126 | 0.139 | 0.131 | 0.483 | 0.607 | 0.751 | 0.35 | 0.522 | 0.892 | 0.806 | 0.519 | 0.642 | 0.544 | 0.583 | 0.21 | 0.686 | 0.899 | 0.933 | 0.734
